Values of other authors as cited in patent US20100239707A1 (priority 2007, published 2010).
“Also recorded” adds a separate entry of the source.

Experiments:
[1] = not given; remark: listed apart in the source
[2] = unprimed

[Ca+2].[Cl-].[Cl-] [anhydrous CaCl2, CaCl2]
intravenous LD50: about 40 mg/kg

COc1cc2c(c(OC)c1OC)-c1ccc(OC)c(=O)cc1[C@@H](NC(C)=O)CC2 [colchicine]
effect on muscle fibers / myotubes (myotubes): causes the disassembly of myotubes

OO [hydrogen peroxide]
concentration inducing apoptosis (cell culture cells): micromolar concentrations

COc1ccc(CNc2nc(NCc3ccc(OC)cc3)c3ncn(C(C)C)c3n2)cc1 [myoseverin]
effect on muscle fibers / myotubes (myotubes): result in cell fission with cells that exhibit DNA sysnthesis and cell growth

COC(=O)Nc1nc2ccc(C(=O)c3cccs3)cc2[nH]1 [nocodazole]
effect on muscle fibers / myotubes (myotubes): causes the disassembly of myotubes; also recorded: result in cell fission with cells that exhibit DNA sysnthesis and cell growth

CC(=O)O[C@H]1C(=O)[C@@]2(C)[C@H]([C@H](OC(=O)c3ccccc3)[C@]3(O)C[C@H](OC(=O)[C@H](O)[C@@H](NC(=O)c4ccccc4)c4ccccc4)C(C)=C1C3(C)C)[C@]1(OC(C)=O)CO[C@@H]1C[C@@H]2O [taxol]
intravenous LD50: 33 mg/kg | effect on muscle fibers / myotubes (myotubes): causes the disassembly of myotubes

CC[C@]1(O)C[C@@H]2CN(CCc3c([nH]c4ccccc34)[C@@](C(=O)OC)(c3cc4c(cc3OC)N(C)[C@H]3[C@@](O)(C(=O)OC)[C@H](OC(C)=O)[C@]5(CC)C=CCN6CC[C@]43[C@@H]65)C2)C1 [vinblastine]
oral LD50 [1]: 300 to 400 mg/kg | effect on muscle fibers / myotubes (myotubes): causes the disassembly of myotubes

lipopolysaccharide [LPS]
LD50 [2]: ~1 mg/kg
